Source: patent US6730680B2 (priority 1999, dated 2004)
In brackets after ≈: the same amount, converted by molar mass.

Key:
[1] = test system: Pyricularia oryzae; assay: microbe, parasite or virus in culture; assay type: cell-based; settings: read-out: MIC (Minimum Inhibitory Concentration)

Structure (SMILES)	melting point	MIC [1]
CC(C)Nc1c(-c2c(F)cc(F)cc2F)c(Cl)nc2ccnn12	143 °C	–
Fc1cc(F)c(-c2c(Cl)nc3ccnn3c2NCC(F)(F)F)c(F)c1 [Example I-7, [5-chloro-6-(2,4,6-trifluoro-phenyl)-pyrazolo[1,5-α]pyrimidin-7-yl]-(2,2,2-trifluoro-ethyl)-amine]	–	0.78 µg/mL (≈ 2.05 µM)
CCN(CC)c1c(-c2c(F)cc(F)cc2F)c(Cl)nc2ccnn12	90 °C	–
CC(C)N(C)c1c(-c2c(F)cc(F)cc2F)c(Cl)nc2ccnn12	109 °C	–
Fc1cc(F)c(-c2c(Cl)nc3ccnn3c2NC2CCCC2)c(F)c1	128 °C	–
